Measured values reported in US20180051316A1, “DETECTION OF NUCLEIC ACID POLYMERASE CONFORMATIONAL CHANGES USING A NANOTUBE” (priority 2014, published 2018).
Several values for one entry are separate records, joined by “and”; a condition that tells them apart may be missing. Equal values may be shown once. Entries after “also recorded” stand apart in the source; their conditions may differ. Read-outs that look alike come from different tables or passages of the source. Marks after values point to notes of the source that are not given here.

Legend:
KF active site = KF active site (Escherichia coli, UniProt P00582); conditions: inhibition of KF catalysis; cited from earlier work
Sequence of KF active site (P00582 324-928): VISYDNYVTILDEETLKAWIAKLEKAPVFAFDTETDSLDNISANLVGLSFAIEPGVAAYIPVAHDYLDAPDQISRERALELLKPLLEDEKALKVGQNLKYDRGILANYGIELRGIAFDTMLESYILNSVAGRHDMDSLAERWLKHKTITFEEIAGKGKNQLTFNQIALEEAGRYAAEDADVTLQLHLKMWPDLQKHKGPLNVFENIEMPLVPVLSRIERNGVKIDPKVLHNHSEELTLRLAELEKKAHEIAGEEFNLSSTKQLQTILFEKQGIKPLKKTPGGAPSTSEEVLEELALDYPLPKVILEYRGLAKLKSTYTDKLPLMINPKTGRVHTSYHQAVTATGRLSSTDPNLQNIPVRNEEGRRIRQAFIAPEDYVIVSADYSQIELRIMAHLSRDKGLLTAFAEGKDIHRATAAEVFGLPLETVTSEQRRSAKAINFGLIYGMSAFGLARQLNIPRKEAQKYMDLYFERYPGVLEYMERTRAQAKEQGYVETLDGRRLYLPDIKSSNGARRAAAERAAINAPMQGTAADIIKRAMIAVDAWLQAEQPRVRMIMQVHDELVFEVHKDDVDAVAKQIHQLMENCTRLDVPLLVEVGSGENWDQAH

KF = target: T1, KF (Escherichia coli, UniProt P00582, C907S/D355A/E357A/L790C); format: biochemical; conditions: 100 μM analog, 25° C., 2 h
T1 construct: Single copies of the Klenow Fragment (KF) of DNA polymerase I were attached to single-walled carbon nanotube devices; made in house; host or cells: E. coli BL21(DE3)
T1 sequence (P00582 324-928 D355A/E357A/L790C/C907S): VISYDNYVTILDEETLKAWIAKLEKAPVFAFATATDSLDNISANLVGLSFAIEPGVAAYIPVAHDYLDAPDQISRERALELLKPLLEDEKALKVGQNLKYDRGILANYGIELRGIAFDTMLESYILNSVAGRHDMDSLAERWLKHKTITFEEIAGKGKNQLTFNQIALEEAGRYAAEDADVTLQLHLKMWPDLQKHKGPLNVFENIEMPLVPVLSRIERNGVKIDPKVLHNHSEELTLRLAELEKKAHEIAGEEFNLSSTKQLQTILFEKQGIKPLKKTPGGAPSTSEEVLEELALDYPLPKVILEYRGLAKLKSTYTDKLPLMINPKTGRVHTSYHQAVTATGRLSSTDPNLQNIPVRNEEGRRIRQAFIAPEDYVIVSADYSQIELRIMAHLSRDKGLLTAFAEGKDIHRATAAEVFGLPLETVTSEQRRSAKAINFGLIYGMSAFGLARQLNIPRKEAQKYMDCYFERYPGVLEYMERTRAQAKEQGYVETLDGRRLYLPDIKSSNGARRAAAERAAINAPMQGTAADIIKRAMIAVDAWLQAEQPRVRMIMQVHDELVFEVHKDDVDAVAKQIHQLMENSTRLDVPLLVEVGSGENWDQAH
Description: Polymerization products with dNTP analogs and the A/T incorporation template (FIG. 8A) or the G/C incorporation template (FIG. 8B) were electrophoresed on a 5% high-resolution agarose gel. […] After visualization, the image colors were inverted, then changed to black and white.
Positive control reactions contained KF (1 μM), dNTPs or dNTP analogs (100 μM), and A/T or G/C incorporation template-primer (5 μM) in 10 mM Tris, 50 mM NaCl, 10 mM MgCl2, 1 mM DTT, pH 7.9. Reactions to test dNTP analog incorporation contained 100 μM analog in place of its native dNTP, and negative control reactions omitted either the analog or its native dNTP. Reactions were kept at 25° C. for 2 h in a thermal cycler before electrophoresis on a 5% high resolution agarose gel (FIG. 8B).

[1] = target: T2, DNA polymerase I (Klenow Fragment) (Escherichia coli, UniProt P00582, C907S/D355A/E357A/L790C); format: biochemical; conditions: for k: k=(<τopen>+<τclosed>)^−1; for <τclosed> / <τopen>: native dNTP 10 μM, analog 100 μM, average ± standard deviation; for direction of current spike ΔI per base incorporation: KF processing poly(dA)42; for frequency of ΔI(t) excursions relative to dGTP: complementary template-primer; for τopen events deviating from the single exponential fit / τopen events encompassed by single exponential fit: poly(dC)42; for τopen events encompassed by single exponential fit: more than 50 s of polymerization data; for direction of ΔI(t) excursions: poly(dC)42 template; for time constant of second exponential fit to tail of τopen distribution: poly(dC)42 template (FIG. 3B)
T2 construct: Single copies of the Klenow Fragment (KF) of DNA polymerase I were attached to single-walled carbon nanotube devices; made in house; host or cells: E. coli BL21(DE3)
T2 sequence (P00582 324-928 D355A/E357A/L790C/C907S): as above
Description: In embodiments, SWCNT-FETs are fabricated and functionalized with a single-cysteine variant of exonuclease-deficient KF (D355A/E357A/L790C/C907S). […] Attachment of KF to SWCNT-FETs is accomplished by soaking the devices in a solution of N-(1-pyrenyl)maleimide (1 mM in ethanol, 30 min), followed by incubation with KF (300 nM KF in a standard KF activity buffer of 20 mM Tris, 50 mM NaCl, 10 mM MgCl2, 100 μM TCEP, pH 8.0). […] Such devices are referred to simply as KF nanocircuits.
In embodiments, homopolymeric templates poly(dA)42, poly(dT)42, poly(dG)42, or poly(dC)42 mixed with complementary dNTP analogs are used for detecting conformational change of a polymerase, e.g., DNA polymerase. In embodiments, each template is fused to an M13 priming site and mixed with an M13 forward primer in a 1:1 stoichiometric ratio; for hybridization, the mixture is heated in a thermal cycler to 95° C. for 5 to 10 min followed by cooling to 65° C. then further cooling with a gradient of 5° C. every five min until reaching room temperature. In embodiments, KF nanocircuits are immersed in activity buffer with the annealed template-primer at 100 nM concentrations. Native or analog dNTPs are added to the buffer in excess, ensuring Vmax conditions for KF catalysis.
In embodiments, measurements consist of monitoring the source-drain current, I(t), through the SWCNT-FET while the attached KF molecule interacted with its surrounding environment. […] In embodiments, I(t) fluctuations are amplified, digitized at 100 kHz, and stored as uninterrupted, 600 s. Between measurements, the KF nanocircuits may be rinsed twice with activity buffer, incubated in buffer for 5 min, then rinsed twice with buffer before introducing another nucleotide and template-primer.
SWCNT FETs were fabricated and functionalized with a single cysteine variant of exonuclease-deficient KF. […] [20,21]
For each measurement, dNTPs were chosen to complement the homopolymeric templates poly(dA)42, poly(dT)42, poly(dG)42, and poly(dC)42. Each template was fused to an M13 priming site and mixed with an M13 forward primer in a 1:1 stoichiometric ratio; for hybridization, the mixture was heated to 95° C. for 5 to 10 minutes followed by cooling to room temperature. SWCNT FETs were immersed in a standard DNA Pol I activity buffer (20 mM Tris, 50 mM NaCl, 10 mM MgCl2, 100 μM TCEP, pH 8.0) with the template-primer hybrid at 100 nM concentration. Native or analog dNTPs were added to the buffer in excess, ensuring Vmax conditions for KF.
Measurements consisted of monitoring the source-drain current I(t) of a SWCNT FET while the attached KF molecule interacted with its surrounding environment.

[2] = complementary homopolymeric template

Cc1cn(C2CC(O)C(COP(O)(=S)OP(=O)(O)OP(=O)(O)O)O2)c(=O)[nH]c1=O (single isomer, unassigned) [Rp diastereomer of α-thio-dTTP]
Ki (KF active site): ~30 µM

Nc1ccn([C@H]2C[C@H](O)[C@@H](COP(=O)(O)OP(=O)(O)OP(=O)(O)O)O2)c(=S)n1 [2-thio-dCTP]
incorporation into dsDNA, native counterpart omitted (KF; G/C incorporation template): incorporated opposite the template base G | enzyme closure time τclosed compared to native dNTPs [1, 2]: no difference | rate of incorporation compared with native dNTPs [1, 2]: slightly faster; also recorded: approximately the same | k ([1]; template poly(dG)42): 30.6 ± 1.2^b 1/s | <τclosed> ([1]; template poly(dG)42): 0.41 ± 0.15^b ms | <τopen> ([1]; template poly(dG)42): 32.3 ± 1.1^b ms

Cc1cn([C@H]2C[C@H](O)[C@@H](COP(=O)(O)OP(=O)(O)OP(=O)(O)O)O2)c(=S)[nH]c1=O [2-thio-dTTP, 2-thio-2′-deoxythimidine-5′-triphosphate]
incorporation into dsDNA, native counterpart omitted (KF; A/T incorporation template): incorporated opposite the template base A | direction of current spike ΔI per base incorporation [1]: positive current spikes ΔI>0 | average KF processing rate k for dNTP incorporation [1, 2]: 16 s⁻¹ | enzyme closure time τclosed compared to native dNTPs [1, 2]: no difference | rate of incorporation compared with native dNTPs [1, 2]: slightly faster; also recorded: approximately the same | k ([1]; template poly(dA)42): 16.3 ± 0.9^b 1/s | <τclosed> ([1]; template poly(dA)42): 0.23 ± 0.14^b ms | <τopen> ([1]; template poly(dA)42): 61.1 ± 3.2^b ms

Nc1nc(Cl)c2ncn([C@H]3C[C@H](O)[C@@H](COP(=O)(O)OP(=O)(O)OP(=O)(O)O)O3)c2n1 [6-Cl-2APTP, 2-amino-6-Cl-purine-2′-deoxyriboside-triphosphate]
incorporation into dsDNA, native counterpart omitted (KF; A/T incorporation template): incorporated opposite the template base T | incorporation into dsDNA, native counterpart omitted (KF; G/C incorporation template): incorporated opposite the template base C | average KF processing rate k for dNTP incorporation [1, 2]: 20 s⁻¹ | enzyme closure time τclosed compared to native dNTPs [1, 2]: no difference | rate of incorporation compared with native dNTPs [1, 2]: compared most favorably to the slowest rates observed for native dGTP incorporation; also recorded: more quickly than native dATP | τopen relative to native dNTP (times longer) [1, 2]: about twice as long | frequency of ΔI(t) excursions relative to dGTP [1]: two to three times less frequently | direction of ΔI(t) current fluctuations ([1]; complementary template-primers): positive current fluctuations | direction of current spikes ([1]; heterogeneous substrates, nucleotide mixtures (FIG. 5A, 5C)): positive current spikes | direction of ΔI(t) signals ([1]; opposite both poly(dC)42 and poly(dT)42 templates): inverted amplitude | rate of ΔI(t) excursions relative to dGTP ([1]; opposite poly(dC)42): 80% | τopen events deviating from the single exponential fit [1]: Approximately twenty-five percent | τopen events encompassed by single exponential fit [1]: ≈ 75% | direction of ΔI(t) excursions [1]: Positive ΔI(t) excursions | time constant of second exponential fit to tail of τopen distribution [1]: 200 ms | k ([1]; template poly(dC)42): 19.7 ± 0.6 s⁻¹ | <τclosed> ([1]; template poly(dC)42): 0.20 ± 0.12 ms | <τopen> ([1]; template poly(dC)42): 50.5 ± 1.4 ms | <τopen> ([1]; template poly(dC)42, listed as 6-Cl-dGTP): 50 ± 1 ms

Nc1ncnc2c1ncn2[C@H]1C[C@H](O)[C@@H](COP(=O)(O)OP(=O)(O)OP(=O)(O)O)O1 [dATP]
k ([1]; template poly(dT)42): 16.8 ± 0.4 s⁻¹ | <τclosed> ([1]; template poly(dT)42): 0.34 ± 0.18 ms | <τopen> ([1]; template poly(dT)42): 58.9 ± 1.2 ms

Nc1ccn([C@H]2C[C@H](O)[C@@H](COP(=O)(O)OP(=O)(O)OP(=O)(O)O)O2)c(=O)n1 [dCTP]
k ([1]; template poly(dG)42): 23.2 ± 3.2 s⁻¹ | <τclosed> ([1]; template poly(dG)42): 0.35 ± 0.20 ms | <τopen> ([1]; template poly(dG)42): 42.8 ± 5.0 ms

Nc1nc2c(ncn2[C@H]2C[C@H](O)[C@@H](COP(=O)(O)OP(=O)(O)OP(=O)(O)O)O2)c(=O)[nH]1 [dGTP]
average KF processing rate k for dNTP incorporation [1, 2]: 41 s⁻¹ | τopen events encompassed by single exponential fit [1]: > 90% | direction of ΔI(t) excursions [1]: negative ΔI(t) excursions | k ([1]; template poly(dC)42): 24.3 ± 4.3 s⁻¹ | <τclosed> ([1]; template poly(dC)42): 0.40 ± 0.20 ms | <τopen> ([1]; template poly(dC)42): 40.8 ± 6.0 ms

Cc1cn([C@H]2C[C@H](O)[C@@H](COP(=O)(O)OP(=O)(O)OP(=O)(O)O)O2)c(=O)[nH]c1=O [dTTP, deoxythymidine triphosphate]
direction of current spike ΔI per base incorporation [1]: negative current spike ΔI<0 | k ([1]; template poly(dA)42): 14.3 ± 0.5 s⁻¹ | <τclosed> ([1]; template poly(dA)42): 0.33 ± 0.12 ms | <τopen> ([1]; template poly(dA)42): 69.6 ± 2.3 ms

Nc1ncnc2c1ncn2[C@H]1C[C@H](O)[C@@H](COP(O)(=S)OP(=O)(O)OP(=O)(O)O)O1 (stereo partly drawn) [α-thio-dATP]
incorporation into dsDNA, native counterpart omitted (KF; A/T incorporation template): incorporated opposite the template base T | effect of lower analog concentration on DNA polymerization ([1]; 10 μM analog instead of 100 μM, poly(dT)42 template): did not affect DNA polymerization | average KF processing rate k for dNTP incorporation [1, 2]: 7 s⁻¹ | k ([1]; template poly(dT)42): 6.8 ± 0.4 s⁻¹ | <τclosed> ([1]; template poly(dT)42): 0.38 ± 0.21 ms | <τopen> ([1]; template poly(dT)42): 145 ms and 145.9 ± 8.4 ms

Nc1ccn([C@H]2C[C@H](O)[C@@H](COP(O)(=S)OP(=O)(O)OP(=O)(O)O)O2)c(=O)n1 (stereo partly drawn) [α-thio-dCTP]
incorporation into dsDNA, native counterpart omitted (KF; G/C incorporation template): incorporated opposite the template base G | average KF processing rate k for dNTP incorporation [1, 2]: 15 s⁻¹ | k ([1]; template poly(dG)42): 14.5 ± 1.0 s⁻¹ | <τclosed> ([1]; template poly(dG)42): 0.33 ± 0.19 ms | <τopen> ([1]; template poly(dG)42): 68.8 ± 4.6 ms

Nc1nc2c(ncn2[C@H]2C[C@H](O)[C@@H](COP(O)(=S)OP(=O)(O)OP(=O)(O)O)O2)c(=O)[nH]1 (stereo partly drawn) [α-thio-dGTP]
incorporation into dsDNA, native counterpart omitted (KF; G/C incorporation template): incorporated opposite the template base C | average KF processing rate k for dNTP incorporation [1, 2]: 15 s⁻¹ | increase of <τopen> relative to native dNTP [1, 2]: 56% | τopen relative to native dNTP (times longer) [1, 2]: approximately 2.5 | frequency of ΔI(t) excursions relative to dGTP [1]: two to three times less frequently | τopen events deviating from the single exponential fit [1]: Approximately twenty-five percent | τopen events encompassed by single exponential fit [1]: ≈ 75% | time constant of second exponential fit to tail of τopen distribution [1]: 200 ms | k ([1]; template poly(dC)42): 15.7 ± 0.7 s⁻¹ | <τclosed> ([1]; template poly(dC)42): 0.21 ± 0.15 ms | <τopen> ([1]; template poly(dC)42): 63 ± 3 ms and 63.6 ± 2.8 ms

Cc1cn([C@H]2C[C@H](O)[C@@H](COP(O)(=S)OP(=O)(O)OP(=O)(O)O)O2)c(=O)[nH]c1=O (stereo partly drawn) [α-thio-dTTP]
incorporation into dsDNA, native counterpart omitted (KF; A/T incorporation template): incorporated opposite the template base A | average KF processing rate k for dNTP incorporation [1, 2]: 7 s⁻¹ | k ([1]; template poly(dA)42): 6.6 ± 0.3 s⁻¹ | <τclosed> ([1]; template poly(dA)42): 0.29 ± 0.13 ms | <τopen> ([1]; template poly(dA)42): 152.1 ± 6.6 ms
